“Also recorded” adds a separate entry of the source. Read-outs that look alike come from different tables or passages of the source. Marks after values point to notes of the source that are not given here.
Columns and labels:
[1] = Study M04-710 pharmacokinetics, multiple-dose escalation, non-hematologic malignancies; assay type: in vivo, human; conditions: for AUC∞/D / Cmax/D / AUC0-24/D / Cmax / Tmax / AUC(0-t) / AUC(0-inf) / clearance / half-life: mean ± SD; for Cmax / Tmax / AUC(0-t) / AUC(0-inf) / clearance / half-life: human, plasma; for AUC(0-t): read-out: AUC0-24
Procedure: (§1) In study M04-710, blood samples for pharmacokinetic analysis were collected on Days 1 and 15 at the following times: 0 (pre-dose), 0.5, 1, 2, 3, 4, 6, 8, and 24 h (Day 1 only).
(§2) In study M05-756, blood samples for pharmacokinetic analysis were collected on Days 1 and 8 at the following times: 0 (pre-dose), 0.5, 1, 2, 3, 4, 6, 8, and 24 h (Day 1 only). Urine was collected for the 24 hour period following dosing on Day 13 through bedtime on Day 14 (non-hematologic malignancy study) and following dosing after Day 6 and through bedtime on Day 7 (AML/MDS study). Plasma and urine concentrations of ABT-869 were determined under the supervision of the Drug Analysis Department at Abbott using LCMS/MS. PK parameters were determined by noncompartmental analysis using WinNonlin Professional Version 5.0.1.

[2] = PK comparison across studies M04-710 and M05-756 (race, cancer type); assay type: in vivo, human; conditions: for Dose Normalized AUC24 / Dose Normalized Cmax: steady state; for half-life: human, plasma, oral
Procedure: The objective of this analysis was to compare pharmacokinetic (PK) parameters and to monitor safety and early efficacy of ABT-869 when treating solid tumors versus hematologic malignances, Asian versus Caucasian populations and using solution versus tablet formulations.
as §1, §2

[3] = test system: non-hematologic malignancy; experiment: Efficacy in study M04-710; assay type: in vivo, human
Procedure: Study M04-710 and M05-756 are ongoing, open-label, multiple-dose escalation trials with ABT-869 administered daily for 21 consecutive days, with dose escalation scheduled in cohorts of 3 subjects. […] In both studies dosing was initiated at 10 mg QD, with subjects self-administering ABT-869 orally (admixed with approximately 60 mL of Ensure Plus or an approved alternative) at bedtime. Food was not allowed 2 h before or after dosing.
ECOG score of 0-2 in study of non-hematologic malignancies or 0-3 in AML/MDS study.

[4] = Safety in study M04-710 (adverse events, DLTs); assay type: in vivo, human
Procedure: Study M04-710 and M05-756 are ongoing, open-label, multiple-dose escalation trials with ABT-869 administered daily for 21 consecutive days, with dose escalation scheduled in cohorts of 3 subjects. […] In both studies dosing was initiated at 10 mg QD, with subjects self-administering ABT-869 orally (admixed with approximately 60 mL of Ensure Plus or an approved alternative) at bedtime. Food was not allowed 2 h before or after dosing. As a portion of trial M04-710, the bioavailability of ABT-869 as a single dose in a 10 mg tablet formulation was determined relative to the solution formulation.
(§3) The following safety evaluations were performed during the studies: adverse event monitoring, vital signs, ECGs, physical examination and laboratory tests assessments.

[5] = human, in vivo
Procedure: Food was not allowed 2 h before or after dosing.
as §3

[6] = Study Day 1, 10 mg (~0.20 mg/kg)
[7] = Study Day 15, 10 mg (~0.20 mg/kg)
[8] = oral, 0.1 mg/kg, Study Day 15, 0.10 mg/kg
[9] = oral, 0.1 mg/kg, Study Day 1, 0.10 mg/kg
[10] = oral, 0.25 mg/kg, Study Day 1, 0.25 mg/kg
[11] = oral, 0.25 mg/kg, Study Day 15, 0.25 mg/kg
[12] = oral, 0.3 mg/kg, Study Day 15, 0.30 mg/kg
[13] = oral, 0.3 mg/kg, Study Day 1, 0.30 mg/kg
[14] = oral, 10 mg, Study Day 1, 10 mg (~0.20 mg/kg)
[15] = oral, 10 mg, Study Day 15, 10 mg (~0.20 mg/kg)
[16] = oral, Study Day 1, 10 mg (~0.20 mg/kg)
[17] = Asian population, N 37, adjusted mean (% CV)
[18] = Caucasian population, N 12, adjusted mean (% CV)
[19] = Hematologic malignancies, N 17, adjusted mean (% CV)
[20] = Solid tumors, N 32, adjusted mean (% CV)
[21] = all cycles, N = 27, highest grade per subject
[22] = all cycles, N = 27, includes Skin Reaction, Skin Lesion, and Rash

Cc1ccc(F)c(NC(=O)Nc2ccc(-c3cccc4[nH]nc(N)c34)cc2)c1 [ABT-869, N-[4-(3-amino-1H-indazol-4-yl)phenyl]-N′-(2-fluoro-5-methylphenyl)urea]
dose proportionality and time dependence of PK ([1]; 0.10 to 0.30 mg/kg QD, oral): dose-proportional and time-invariant; also recorded: approximately dose-proportional (0.10-0.30 mg/kg QD, oral) and time independent with minimal accumulation at day 15
dose recovered in the urine as unchanged ABT-869 ([1]; 24 hour urine, N=4): ~4%
AUC∞/D ([1]; Study Day 1, 0.10 mg/kg): 0.51 ± 0.21 µg·h/mL/mg
Cmax/D ([1]; Study Day 1, 0.10 mg/kg): 0.020 ± 0.007 µg/mL/mg
AUC∞/D ([1]; Study Day 1, 0.25 mg/kg): 0.41 ± 0.19 µg·h/mL/mg
Cmax/D ([1]; Study Day 1, 0.25 mg/kg): 0.019 ± 0.006 µg/mL/mg
AUC∞/D ([1]; Study Day 1, 0.30 mg/kg): 0.47 ± 0.19 µg·h/mL/mg
Cmax/D ([1]; Study Day 1, 0.30 mg/kg): 0.020 ± 0.008 µg/mL/mg
AUC∞/D [1, 6]: 0.41 ± 0.22 µg·h/mL/mg
Cmax/D [1, 6]: 0.021 ± 0.012 µg/mL/mg
AUC0-24/D ([1]; Study Day 15, 0.10 mg/kg): 0.35 ± 0.15 µg·h/mL/mg
Cmax/D ([1]; Study Day 15, 0.10 mg/kg): 0.024 ± 0.008 µg/mL/mg
AUC0-24/D ([1]; Study Day 15, 0.25 mg/kg): 0.30 ± 0.08 µg·h/mL/mg
Cmax/D ([1]; Study Day 15, 0.25 mg/kg): 0.022 ± 0.006 µg/mL/mg
AUC0-24/D ([1]; Study Day 15, 0.30 mg/kg): 0.30 ± 0.07 µg·h/mL/mg
Cmax/D ([1]; Study Day 15, 0.30 mg/kg): 0.022 ± 0.008 µg/mL/mg
AUC0-24/D [1, 7]: 0.35 ± 0.20 µg·h/mL/mg
Cmax/D [1, 7]: 0.026 ± 0.019 µg/mL/mg
Cmax [1, 8]: 140 ± 50 ng/mL
Tmax [1, 8]: 3.7 ± 1.5 h
AUC(0-t) [1, 8]: 2100 ± 900 ng·h/mL
AUC(0-inf) [1, 9]: 3100 ± 1400 ng·h/mL
Cmax [1, 9]: 120 ± 50 ng/mL
Tmax [1, 9]: 3.5 ± 1.5 h
clearance [1, 9]: 38.3 mL/min
half-life [1, 9]: 19 ± 5.6 h
Cmax [1, 10]: 260 ± 90 ng/mL
Tmax [1, 10]: 2.7 ± 0.8 h
Cmax [1, 11]: 310 ± 120 ng/mL
Tmax [1, 11]: 3.5 ± 1 h
Cmax [1, 12]: 390 ± 170 ng/mL
Tmax [1, 12]: 3.3 ± 0.6 h
AUC(0-t) [1, 12]: 5300 ± 1500 ng·h/mL
AUC(0-inf) [1, 13]: 7900 ± 2000 ng·h/mL
Cmax [1, 13]: 340 ± 90 ng/mL
Tmax [1, 13]: 2 h
clearance [1, 13]: 40 mL/min
half-life [1, 13]: 22 ± 2.4 h
Cmax [1, 14]: 210 ± 120 ng/mL
Tmax [1, 14]: 3.3 ± 1.5 h
Cmax [1, 15]: 220 ± 170 ng/mL
Tmax [1, 15]: 3 h
AUC(0-inf) ([1]; oral, Study Day 1, 0.25 mg/kg): 5800 ± 2900 ng·h/mL
clearance ([1]; oral, Study Day 1, 0.25 mg/kg): 50 mL/min
half-life ([1]; oral, Study Day 1, 0.25 mg/kg): 18.9 ± 6.2 h
AUC(0-inf) [1, 16]: 4100 ± 2200 ng·h/mL
clearance [1, 16]: 50 mL/min
half-life [1, 16]: 14.4 ± 4.6 h
AUC(0-t) ([1]; oral, Study Day 15, 0.25 mg/kg): 4300 ± 2100 ng·h/mL
AUC(0-t) ([1]; oral, Study Day 15, 10 mg (~0.20 mg/kg)): 3000 ± 1500 ng·h/mL
time to maximum plasma concentration ([2]; 42 patients across studies): approximately 3 h
Dose Normalized AUC24 [2, 17]: 0.264 (41%) μg · hr/mL/mg
Dose Normalized Cmax [2, 17]: 0.018 (37%) μg/mL/mg
Dose Normalized AUC24 [2, 18]: 0.229 (34%) μg · hr/mL/mg
Dose Normalized Cmax [2, 18]: 0.016 (27%) μg/mL/mg
Dose Normalized AUC24 [2, 19]: 0.230 (39%) μg · hr/mL/mg
Dose Normalized Cmax [2, 19]: 0.018 (33%) μg/mL/mg
Dose Normalized AUC24 [2, 20]: 0.273 (40%) μg · hr/mL/mg
Dose Normalized Cmax [2, 20]: 0.017 (39%) μg/mL/mg
half-life ([2]; 42 patients across studies, read-out: mean terminal elimination half-life): 13.9 to 23.1 h
half-life ([2]; Asian population, N 37, adjusted mean (% CV), read-out: T1/2 (converted)): 18.4 h
half-life ([2]; Caucasian population, N 12, adjusted mean (% CV), read-out: T1/2 (converted)): 14.5 h
half-life ([2]; Hematologic malignancies, N 17, adjusted mean (% CV), read-out: T1/2 (converted)): 15.7 h
half-life ([2]; Solid tumors, N 32, adjusted mean (% CV), read-out: T1/2 (converted)): 18.4 h
change in tumor size ([3]; NSCLC, CRC, neuroendocrine tumor, HCC, RCC soft tissue sarcoma and ovarian carcinoma): Reductions in tumor size observed
NSCLC patients with partial remission / partial response ([3]; study M04-710): 2 (9%) patients (%)
patients with SD for >1 year with no accumulation of toxicity ([3]; study M04-710): 4 patients
patients with SD for ≧6 months ([3]; study M04-710): 6 (22%) patients (%)
patients with stable disease (SD) for ≧3 months (4 treatment periods) ([3]; study M04-710): 15 (56%) patients (%)
DLT: Grade 3 hypertension ([4]; 0.10 mg/kg): 1 patient
DLT: Grade 3 hypertension ([4]; 0.25 mg/kg): 1 patient
DLT: Grade 3 proteinuria ([4]; 0.25 mg/kg): 1 patient
DLT: Grade 3 proteinuria and Grade 3 hypertension ([4]; 0.30 mg/kg): 2 patients
DLT: Grade 3 fatigue ([4]; 10 mg/body): 1 patient
Anorexia, Overall ([4]; all cycles, N = 27): 7 (25.9) n (%)
Arthralgia, Overall ([4]; all cycles, N = 27): 6 (22.2) n (%)
Constipation, Overall ([4]; all cycles, N = 27): 6 (22.2) n (%)
Diarrhoea, Overall ([4]; all cycles, N = 27): 7 (25.9) n (%)
Fatigue, Overall ([4]; all cycles, N = 27): 22 (81.5) n (%)
Hypertension, Overall ([4]; all cycles, N = 27): 12 (44.4) n (%)
Myalgia, Overall ([4]; all cycles, N = 27): 15 (55.6) n (%)
Nausea, Overall ([4]; all cycles, N = 27): 5 (18.5) n (%)
Oral Pain, Overall ([4]; all cycles, N = 27): 11 (40.7) n (%)
Proteinuria, Overall ([4]; all cycles, N = 27): 6 (22.2) n (%)
Vomiting, Overall ([4]; all cycles, N = 27): 5 (18.5) n (%)
Anorexia, Grade 1 [4, 21]: 6 n
Anorexia, Grade 2 [4, 21]: 1 n
Anorexia, Grade 3/4 [4, 21]: 0 n
Arthralgia, Grade 1 [4, 21]: 5 n
Arthralgia, Grade 2 [4, 21]: 1 n
Arthralgia, Grade 3/4 [4, 21]: 0 n
Constipation, Grade 1 [4, 21]: 0 n
Constipation, Grade 2 [4, 21]: 6 n
Constipation, Grade 3/4 [4, 21]: 0 n
Diarrhoea, Grade 1 [4, 21]: 6 n
Diarrhoea, Grade 2 [4, 21]: 1 n
Diarrhoea, Grade 3/4 [4, 21]: 0 n
Fatigue, Grade 1 [4, 21]: 14 n
Fatigue, Grade 2 [4, 21]: 4 n
Hypertension, Grade 1 [4, 21]: 0 n
Hypertension, Grade 2 [4, 21]: 8 n
Hypertension, Grade 3/4 [4, 21]: 4 n
Myalgia, Grade 1 [4, 21]: 9 n
Myalgia, Grade 2 [4, 21]: 6 n
Myalgia, Grade 3/4 [4, 21]: 0 n
Nausea, Grade 1 [4, 21]: 3 n
Nausea, Grade 2 [4, 21]: 2 n
Nausea, Grade 3/4 [4, 21]: 0 n
Oral Pain, Grade 1 [4, 21]: 9 n
Oral Pain, Grade 2 [4, 21]: 2 n
Oral Pain, Grade 3/4 [4, 21]: 0 n
Proteinuria, Grade 1 [4, 21]: 0 n
Proteinuria, Grade 2 [4, 21]: 2 n
Proteinuria, Grade 3/4 [4, 21]: 4 n
Vomiting, Grade 1 [4, 21]: 4 n
Vomiting, Grade 2 [4, 21]: 1 n
Vomiting, Grade 3/4 [4, 21]: 0 n
Skin Related Event, Grade 1 [4, 22]: 5 n
Skin Related Event, Grade 2 [4, 22]: 9 n
Skin Related Event, Grade 3/4 [4, 22]: 1 n
Skin Related Event, Overall [4, 22]: 15 (55.6) n (%)
Fatigue, Grade 3/4 ([4]; all cycles, N = 27, occurred in cycle 3 or later): 4** n
dose-limiting toxicities ([4]; study M04-710): hypertension, proteinuria and fatigue are dose-limiting
reversibility of toxicities ([4]; study M04-710): treatable, or reversible with ABT-869 interruption
Klebsiella Bacteraemia, Grade 1 [5]: 0 n
Klebsiella Bacteraemia, Grade 2 [5]: 0 n
Klebsiella Bacteraemia, Grade 3/4 [5]: 2 n
Klebsiella Bacteraemia, Overall [5]: 2 (20.0) n (%)

From patent publication US20090203709A1, “Pharmaceutical Dosage Form For Oral Administration Of Tyrosine Kinase Inhibitor” (ABBOTT LABORATORIES, priority 2008, published 2009)
